# Key:
# [1] = Absorbance and fluorescence emission spectra (SpectraMax M2); type: physicochemical; details: for λmax Absorp. (nm) / λmax Emission (nm): MKCA compound library; for λmax Absorp. (nm) / λmax Abs. (nm): absorbance maximum; for λmax Emission (nm) / λmax Em. (nm): fluorescence emission maximum; for λmax Abs. (nm) / λmax Em. (nm): MKAC compound library
# Description: BDC-8 (Blue): absorbance λmax=473 nm, emission λmax=585 nm; MK101-8 (Green): absorbance λmax=474 nm, emission λmax=563 nm; MKHA374-48 (Yellow): absorbance λmax=468 nm, λem=557 nm. The corresponding spectra of a reported BODIPY (BD-27; Red) are also included for comparison: absorbance λmax=551 nm, emission λmax=568 nm. The structures of BDC-8, MK101-8, MKHA374-48 and BD-27 are also depicted.
# (§1) ^1H-NMR, ^19F-NMR and ^13C-NMR spectra were recorded on Bruker ACF300 (300 MHz), DPX300 (300 MHz) and AMX500 (500 MHz) spectrometers. High resolution mass spectra (ESI) were obtained on a Finnigan/MAT 95XL-T spectrometer. Spectroscopic and quantum yield data were measured on a SpectraMax M2 spectrophotometer (Molecular Devices). Data analysis was performed using GraphPrism 5.0. Analytical characterization was performed on a HPLC-MS (Agilent-1200 series) with a DAD detector and a single quadrupole mass spectrometer (6130 series) with an ESI probe. Analytical HPLC method: eluents, A: H2O (0.1% HCOOH), B: CH3CN (0.1% HCOOH), gradient 5% B to 95% B (10 min). Reverse-phase Phenomenex C18 Luna column (4.6×50 mm^2, 3.5 […]), flow rate: 1 mL/min.
# [2] = Quantum yield measurements versus Acridine Yellow in EtOH; type: physicochemical; details: for φ (%): quantum yield; for φ (quantum yield): excitation 460 nm
# Description: as §1
# Quantum yields were calculated by measuring the integrated emission area of the fluorescent spectra and comparing to the area measured for Acridine Yellow in EtOH when excited at 460 nm (Φfluorescence^AcridineYellow=0.47). Quantum yields for the amino-triazolyl-BODIPYs were calculated using the equation below, where F represents the area of fluorescent emission, η is the refractive index of the solvent, and Abs is absorbance at the excitation wavelength selected for standards and samples. Emission was integrated between 510 and 700 nm.
compound,measurement,setting,value
CC(C)Cc1cn(-c2ccc3n2[B-](F)(F)[N+]2=C(N(C)Cc4ccccc4)C=CC2=C3c2ccc(NC(=O)CCl)cc2)nn1 [MKCA195-43],λmax Absorp. (nm),[1],465 nm
same,λmax Emission (nm),[1],575 nm
same,φ (%),[2]; MKCA compound library,4.97%
CC(C)(C)c1ccc(-c2cn(-c3ccc4n3[B-](F)(F)[N+]3=C(N5CCCCC5)C=CC3=C4c3ccc(NC(=O)CCl)cc3)nn2)cc1 [BDCCA-11],λmax Absorp.,"[1]; BDCCA library, Table 4",464 nm
same,λmax Emission,"[1]; BDCCA library, Table 4",587 nm
same,φ (quantum yield),"[2]; BDCCA library, Table 4",1.3%
CCCc1cn(-c2ccc3n2[B-](F)(F)[N+]2=C(N4CCCC4)C=CC2=C3c2ccc(N)cc2)nn1 [MK215-48],λmax Absorp.,"[1]; MK library, Table 5",470 nm
same,λmax Emission,"[1]; MK library, Table 5",575 nm
same,φ (quantum yield),"[2]; MK library, Table 5",0.29%
CCCCCC(O)c1cn(-c2ccc3n2[B-](F)(F)[N+]2=C(N(C)Cc4ccccc4)C=CC2=C3c2ccc(N)cc2)nn1 (centres unmarked) [MK195-69],λmax Absorp.,"[1]; MK library, Table 5",476 nm
same,λmax Emission,"[1]; MK library, Table 5",591 nm
same,φ (quantum yield),"[2]; MK library, Table 5",0.28%
CC(C)Cc1cn(-c2ccc3n2[B-](F)(F)[N+]2=C(N4CCCCC4)C=CC2=C3c2ccc(NC(=O)CCl)cc2)nn1 [BDCCA-43],λmax Absorp.,"[1]; BDCCA library, Table 4",466 nm
same,λmax Emission,"[1]; BDCCA library, Table 4",583 nm
same,φ (quantum yield),"[2]; BDCCA library, Table 4",0.8%
CC(=O)Nc1ccc(C2=C3C=CC(NCc4cc(F)cc(F)c4)=[N+]3[B-](F)(F)n3c2ccc3-n2cc(CCc3ccccc3)nn2)cc1 [MKAC412-19],λmax Abs. (nm),[1],467 nm
same,λmax Em. (nm),[1],562 nm
same,φ (%),[2]; MKAC compound library,24.16%
CC(=O)Nc1ccc(C2=C3C=CC(N4CCCC4)=[N+]3[B-](F)(F)n3c2ccc3-n2cc(CC3CCCCC3)nn2)cc1 [MKAC215-8],λmax Abs. (nm),[1],462 nm
same,λmax Em. (nm),[1],568 nm
same,φ (%),[2]; MKAC compound library,1.17%
CCCC(C)c1cn(-c2ccc3n2[B-](F)(F)[N+]2=C(NCc4ccccc4OCC)C=CC2=C3c2ccc(NC(C)=O)cc2)nn1 (centres unmarked) [MKAC103-3],λmax Abs. (nm),[1],465 nm
same,λmax Em. (nm),[1],561 nm
same,φ (%),[2]; MKAC compound library,23.42%
Nc1ccc(C2=C3C=CC(N4CCCCC4)=[N+]3[B-](F)(F)n3c2ccc3-n2cc(-c3cccc(F)c3)nn2)cc1 [BDC-31],λmax Absorp.,"[1]; BDC library, Table 2",470 nm
same,λmax Emission,"[1]; BDC library, Table 2",582 nm
same,φ (quantum yield),"[2]; BDC library, Table 2",0.11%
O=C(CCl)Nc1ccc(C2=C3C=CC(N4CCCCC4)=[N+]3[B-](F)(F)n3c2ccc3-n2cc(CC3CCCC3)nn2)cc1 [BDCCA-7],λmax Absorp.,"[1]; BDCCA library, Table 4",468 nm
same,λmax Emission,"[1]; BDCCA library, Table 4",590 nm
same,φ (quantum yield),"[2]; BDCCA library, Table 4",0.9%
CN(Cc1ccccc1)C1=[N+]2C(=C(c3ccc(NC(=O)CCl)cc3)c3ccc(-n4cc(C5CCCC5)nn4)n3[B-]2(F)F)C=C1 [MKCA195-5],λmax Absorp. (nm),[1],467 nm
same,λmax Emission (nm),[1],580 nm
same,φ (%),[2]; MKCA compound library,4.93%
CC(=O)Nc1ccc(C2=C3C=CC(N4CCCCC4)=[N+]3[B-](F)(F)n3c2ccc3-n2cc(CCC(C)C)nn2)cc1 [BDCAC-36],λmax Absorp.,"[1]; BDCAC library, Table 3",467 nm
same,λmax Emission,"[1]; BDCAC library, Table 3",585 nm
same,φ (quantum yield),"[2]; BDCAC library, Table 3",0.8%
CC1CN(C2=[N+]3C(=C(c4ccc(N)cc4)c4ccc(-n5cc(CCc6ccccc6)nn5)n4[B-]3(F)F)C=C2)CC(C)O1 (centres unmarked) [MK20-19],λmax Absorp.,"[1]; MK library, Table 5",477 nm
same,λmax Emission,"[1]; MK library, Table 5",578 nm
same,φ (quantum yield),"[2]; MK library, Table 5",0.34%
COc1ccc(OC)c(CNC2=[N+]3C(=C(c4ccc(N)cc4)c4ccc(-n5cc(C6CCCC6)nn5)n4[B-]3(F)F)C=C2)c1 [MK181-5],λmax Absorp.,"[1]; MK library, Table 5",475 nm
same,λmax Emission,"[1]; MK library, Table 5",563 nm
same,φ (quantum yield),"[2]; MK library, Table 5",0.43%
CCCCCC(O)c1cn(-c2ccc3n2[B-](F)(F)[N+]2=C(NCc4cc(OC)ccc4OC)C=CC2=C3c2ccc(NC(=O)CCl)cc2)nn1 (centres unmarked) [MKCA181-69],λmax Absorp. (nm),[1],465 nm
same,λmax Emission (nm),[1],558 nm
same,φ (%),[2]; MKCA compound library,14.25%
CC(=O)Nc1ccc(C2=C3C=CC(N4CC(C)OC(C)C4)=[N+]3[B-](F)(F)n3c2ccc3-n2cc(CC(C)C)nn2)cc1 (centres unmarked) [MKAC20-43],λmax Abs. (nm),[1],467 nm
same,λmax Em. (nm),[1],586 nm
same,φ (%),[2]; MKAC compound library,1.55%
O=C(CCl)Nc1ccc(C2=C3C=CC(N4CCc5ccccc5C4)=[N+]3[B-](F)(F)n3c2ccc3-n2cc(C3CCCC3)nn2)cc1 [MKCA66-5],λmax Absorp. (nm),[1],470 nm
same,λmax Emission (nm),[1],587 nm
same,φ (%),[2]; MKCA compound library,3.11%
CC(=O)Nc1ccc(C2=C3C=CC(N4CCCCC4)=[N+]3[B-](F)(F)n3c2ccc3-n2cc(C3CC3)nn2)cc1 [BDCAC-4],λmax Absorp.,"[1]; BDCAC library, Table 3",467 nm
same,λmax Emission,"[1]; BDCAC library, Table 3",578 nm
same,φ (quantum yield),"[2]; BDCAC library, Table 3",1.5%
CC(=O)Nc1ccc(C2=C3C=CC(N4CCCCC4)=[N+]3[B-](F)(F)n3c2ccc3-n2cc(C3(O)CCCC3)nn2)cc1 [BDCAC-67],λmax Absorp.,"[1]; BDCAC library, Table 3",469 nm
same,λmax Emission,"[1]; BDCAC library, Table 3",592 nm
same,φ (quantum yield),"[2]; BDCAC library, Table 3",0.8%
CC(=O)Nc1ccc(C2=C3C=CC(N4CCCCC4)=[N+]3[B-](F)(F)n3c2ccc3-n2cc(-c3cccc(F)c3)nn2)cc1 [BDCAC-31],λmax Absorp.,"[1]; BDCAC library, Table 3",463 nm
same,λmax Emission,"[1]; BDCAC library, Table 3",569 nm
same,φ (quantum yield),"[2]; BDCAC library, Table 3",0.9%
CCCC(C)c1cn(-c2ccc3n2[B-](F)(F)[N+]2=C(N4CC(C)OC(C)C4)C=CC2=C3c2ccc(NC(=O)CCl)cc2)nn1 (centres unmarked) [MKCA20-3],λmax Absorp. (nm),[1],467 nm
same,λmax Emission (nm),[1],581 nm
same,φ (%),[2]; MKCA compound library,3.15%
CCCC(C)c1cn(-c2ccc3n2[B-](F)(F)[N+]2=C(NCc4cc(OC)ccc4OC)C=CC2=C3c2ccc(N)cc2)nn1 (centres unmarked) [MK181-3],λmax Absorp.,"[1]; MK library, Table 5",473 nm
same,λmax Emission,"[1]; MK library, Table 5",565 nm
same,φ (quantum yield),"[2]; MK library, Table 5",0.36%
CCCCCCCCc1cn(-c2ccc3n2[B-](F)(F)[N+]2=C(N4CCCCC4)C=CC2=C3c2ccc(NC(=O)CCl)cc2)nn1 [BDCCA-44],λmax Absorp.,"[1]; BDCCA library, Table 4",466 nm
same,λmax Emission,"[1]; BDCCA library, Table 4",582 nm
same,φ (quantum yield),"[2]; BDCCA library, Table 4",0.7%
Cc1cccc(-c2cn(-c3ccc4n3[B-](F)(F)[N+]3=C(N5CCCCC5)C=CC3=C4c3ccc(NC(=O)CCl)cc3)nn2)c1 [BDCCA-45],λmax Absorp.,"[1]; BDCCA library, Table 4",463 nm
same,λmax Emission,"[1]; BDCCA library, Table 4",555 nm
same,φ (quantum yield),"[2]; BDCCA library, Table 4",2.7%
Cc1ccccc1CNC1=[N+]2C(=C(c3ccc(N)cc3)c3ccc(-n4cc(CCc5ccccc5)nn4)n3[B-]2(F)F)C=C1 [MK101-19],λmax Absorp.,"[1]; MK library, Table 5",472 nm
same,λmax Emission,"[1]; MK library, Table 5",560 nm
same,φ (quantum yield),"[2]; MK library, Table 5",2.03%
Cc1ccccc1CNC1=[N+]2C(=C(c3ccc(NC(=O)CCl)cc3)c3ccc(-n4cc(C5CCCC5)nn4)n3[B-]2(F)F)C=C1 [MKCA101-5],λmax Absorp. (nm),[1],466 nm
same,λmax Emission (nm),[1],563 nm
same,φ (%),[2]; MKCA compound library,31.53%
COc1cc(OC)cc(-c2cn(-c3ccc4n3[B-](F)(F)[N+]3=C(N5CCCCC5)C=CC3=C4c3ccc(N)cc3)nn2)c1 [BDC-14],λmax Absorp.,"[1]; BDC library, Table 2",473 nm
same,λmax Emission,"[1]; BDC library, Table 2",578 nm
same,φ (quantum yield),"[2]; BDC library, Table 2",0.18%
CCCC(C)c1cn(-c2ccc3n2[B-](F)(F)[N+]2=C(N(C)Cc4ccccc4)C=CC2=C3c2ccc(NC(C)=O)cc2)nn1 (racemic) [MKAC195-3],λmax Abs. (nm),[1],465 nm
same,λmax Em. (nm),[1],574 nm
same,φ (%),[2]; MKAC compound library,6.53%
COc1cccc(-c2cn(-c3ccc4n3[B-](F)(F)[N+]3=C(N5CCCCC5)C=CC3=C4c3ccc(N)cc3)nn2)c1 [BDC-27],λmax Absorp.,"[1]; BDC library, Table 2",472 nm
same,λmax Emission,"[1]; BDC library, Table 2",565 nm
same,φ (quantum yield),"[2]; BDC library, Table 2",0.17%
CCCC(C)c1cn(-c2ccc3n2[B-](F)(F)[N+]2=C(N4CCc5ccccc5C4)C=CC2=C3c2ccc(N)cc2)nn1 (centres unmarked) [MK66-3],λmax Absorp.,"[1]; MK library, Table 5",479 nm
same,λmax Emission,"[1]; MK library, Table 5",579 nm
same,φ (quantum yield),"[2]; MK library, Table 5",0.16%
CCCC(C)c1cn(-c2ccc3n2[B-](F)(F)[N+]2=C(NCc4cc(OC)ccc4OC)C=CC2=C3c2ccc(NC(=O)CCl)cc2)nn1 (centres unmarked) [MKCA181-3],λmax Absorp. (nm),[1],465 nm
same,λmax Emission (nm),[1],564 nm
